# Measured values as given in patent US20120028995A1, “NOVEL COMPOUNDS FOR MEDICAL USE AS PEPTIDASE EFFECTORS” (IMTM GMBH, priority 2010, published 2012).
# Key:
# [1] = molecular target: T1, purified, recombinant human DPIV (Homo sapiens, UniProt P27487); experiment: Inhibition of enzymatic activity of DPIV (fluorogenic substrate hydrolysis); format: biochemical; conditions: highest test item concentration 25 μM
# T1 construct: made in house; host or cells: Sf9 insect cells
# Procedure, shortened: (§1)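 Recombinant human DPIV (Sf9-derived, approx. 1 nM) and recombinant DP8/DP9 in 0.05M Tris/HCl pH 7.5 with 0.05% Triton, 0.05% BSA, 2 mM MgCl2. Substrates were Gly-Pro-AMC at 50 μM (ex 380/em 460 nm, read at 0–120 min) or (Ala-Pro)2-R110 at 1 μM (ex 488/em 530 nm). IC50 from ≥16 log2 dilutions, top 25 μM.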
# [2] = molecular target: T2, aminopeptidase N (APN), purified recombinant human enzyme (Homo sapiens, UniProt P15144); experiment: Inhibition of enzymatic activity of aminopeptidase N (fluorogenic substrate hydrolysis); format: biochemical; conditions: highest test item concentration 25 μM
# T2 construct: made in house; host or cells: ECV cells (transfected)
# Procedure, shortened: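 Recombinant human APN from transfected ECV cells was used at approx. 1 nM final, in 0.05M TRIS/HCl pH 7.5 with 0.05% Triton, 0.05% BSA and 2 mM MgCl2. Fluorescence release was read from H-Ala-AMC (50 μM) or (Ala-)2-R110 (1 μM). IC50 values came from at least 16 log2 dilutions starting at 25 μM top concentration.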
# [3] = system: purified, recombinant DP8 and DP9; experiment: Inhibition of enzymatic activity of DP8/9; format: biochemical; conditions: highest test item concentration 25 μM
# Procedure, shortened: as §1
# [4] = molecular target: T3, cytosolic aminopeptidase (cAAP) purified from Jurkat cells (Homo sapiens, UniProt P55786); experiment: Inhibition of enzymatic activity of cytosolic aminopeptidase (cAAP); format: biochemical; conditions: highest test item concentration 25 μM
# T3 construct: The cytosolic aminopeptidase (cAAP) was purified from Jurkat cells; endogenous in cells; host or cells: Jurkat cells (enzyme purified from them)
# T lymphocytes (T cells) = experiment: Suppression of DNA synthesis of PHA-stimulated T lymphocytes; format: cell-based; conditions: Homo sapiens, T-cell, 48 h, tritium thymidine incorporation, read-out: Supp. DNA Synt. T-cell IC50
# Procedure, shortened: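 Healthy-donor PBMC and nylon-wool-purified T cells in serum-free AIMV medium were stimulated 48 h with 1 µg/ml PHA, with compound (0.1–250 µM) present throughout. IC50 was estimated graphically from proliferation relative to PHA-activated T cells without compound.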
# NHEK cells = experiment: Inhibition of DNA synthesis and proliferation of normal human epidermal keratinocytes (NHEK); format: cell-based; conditions: Homo sapiens, NHEK, 48 h, EGF-stimulated NHEK, BrdU incorporation, read-out: Supp. DNA Synt. NHEK IC50
# Procedure, shortened: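 Primary human keratinocytes were grown 48 h in serum-free medium with EGF and pituitary extract, with compounds at 0.1–100 μM. DNA synthesis was measured by BrdU incorporation ELISA relative to untreated controls (100%), and IC50 was derived graphically.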
# SZ95 cells = experiment: Inhibition of DNA synthesis and proliferation of immortalized human sebocytes SZ95; format: cell-based; conditions: Homo sapiens, EGF-stimulated SZ95 sebocytes, tritium thymidine incorporation; read-out: Supp. DNA Synt. SZ95 IC50
# Procedure, shortened: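 EGF-stimulated SZ95 sebocytes in serum-free Sebomed Complete, treated with test items at 0.1–100 μM. DNA synthesis read by 3H-thymidine incorporation (beta counting), expressed relative to untreated cells (100%). IC50 for proliferation suppression derived graphically.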
# T2 sequence (P15144 whole entry): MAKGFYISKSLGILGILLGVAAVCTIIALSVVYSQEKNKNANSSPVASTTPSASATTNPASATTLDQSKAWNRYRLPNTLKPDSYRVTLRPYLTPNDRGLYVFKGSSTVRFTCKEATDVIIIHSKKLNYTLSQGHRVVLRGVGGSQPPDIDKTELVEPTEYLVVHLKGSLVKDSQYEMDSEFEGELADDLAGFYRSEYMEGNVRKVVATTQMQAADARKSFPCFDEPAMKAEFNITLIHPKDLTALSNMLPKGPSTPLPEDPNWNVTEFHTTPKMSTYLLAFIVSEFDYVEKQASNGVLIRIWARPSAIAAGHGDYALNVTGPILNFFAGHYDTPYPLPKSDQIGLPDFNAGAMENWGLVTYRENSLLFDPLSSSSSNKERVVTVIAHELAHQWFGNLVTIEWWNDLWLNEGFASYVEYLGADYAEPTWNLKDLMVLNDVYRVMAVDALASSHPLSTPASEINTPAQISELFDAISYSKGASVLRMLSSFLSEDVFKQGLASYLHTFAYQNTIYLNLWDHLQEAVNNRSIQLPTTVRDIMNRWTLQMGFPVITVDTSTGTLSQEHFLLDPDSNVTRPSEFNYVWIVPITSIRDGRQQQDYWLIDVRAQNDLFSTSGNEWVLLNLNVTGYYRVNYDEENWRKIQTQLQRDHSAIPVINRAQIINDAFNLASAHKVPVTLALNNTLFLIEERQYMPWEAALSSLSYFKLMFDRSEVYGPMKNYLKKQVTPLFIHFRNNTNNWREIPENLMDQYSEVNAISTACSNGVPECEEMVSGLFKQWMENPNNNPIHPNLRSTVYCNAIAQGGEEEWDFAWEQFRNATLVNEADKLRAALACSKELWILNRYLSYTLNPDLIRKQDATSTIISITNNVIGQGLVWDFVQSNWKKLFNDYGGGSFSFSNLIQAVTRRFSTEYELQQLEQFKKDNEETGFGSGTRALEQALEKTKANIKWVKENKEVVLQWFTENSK
# T1 sequence (P27487 whole entry): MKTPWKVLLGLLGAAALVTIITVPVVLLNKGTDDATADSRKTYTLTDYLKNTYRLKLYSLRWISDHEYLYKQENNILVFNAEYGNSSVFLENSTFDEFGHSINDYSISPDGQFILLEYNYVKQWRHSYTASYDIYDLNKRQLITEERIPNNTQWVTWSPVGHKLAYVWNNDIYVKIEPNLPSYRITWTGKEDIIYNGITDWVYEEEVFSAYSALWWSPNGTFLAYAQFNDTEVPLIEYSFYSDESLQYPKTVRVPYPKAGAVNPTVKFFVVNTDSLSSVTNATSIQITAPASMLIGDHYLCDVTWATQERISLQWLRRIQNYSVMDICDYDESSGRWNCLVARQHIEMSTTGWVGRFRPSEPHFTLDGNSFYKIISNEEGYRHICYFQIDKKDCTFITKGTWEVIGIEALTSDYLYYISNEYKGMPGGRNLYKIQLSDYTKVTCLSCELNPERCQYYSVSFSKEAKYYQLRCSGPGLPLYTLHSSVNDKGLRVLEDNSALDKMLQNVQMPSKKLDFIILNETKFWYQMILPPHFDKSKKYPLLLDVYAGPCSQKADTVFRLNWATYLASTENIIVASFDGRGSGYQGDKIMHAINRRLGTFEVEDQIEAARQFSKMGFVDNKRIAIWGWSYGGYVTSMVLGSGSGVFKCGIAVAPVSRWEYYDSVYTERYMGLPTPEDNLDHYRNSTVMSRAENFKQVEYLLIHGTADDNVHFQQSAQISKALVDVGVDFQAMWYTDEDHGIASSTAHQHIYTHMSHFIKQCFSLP
# T3 sequence (P55786 whole entry): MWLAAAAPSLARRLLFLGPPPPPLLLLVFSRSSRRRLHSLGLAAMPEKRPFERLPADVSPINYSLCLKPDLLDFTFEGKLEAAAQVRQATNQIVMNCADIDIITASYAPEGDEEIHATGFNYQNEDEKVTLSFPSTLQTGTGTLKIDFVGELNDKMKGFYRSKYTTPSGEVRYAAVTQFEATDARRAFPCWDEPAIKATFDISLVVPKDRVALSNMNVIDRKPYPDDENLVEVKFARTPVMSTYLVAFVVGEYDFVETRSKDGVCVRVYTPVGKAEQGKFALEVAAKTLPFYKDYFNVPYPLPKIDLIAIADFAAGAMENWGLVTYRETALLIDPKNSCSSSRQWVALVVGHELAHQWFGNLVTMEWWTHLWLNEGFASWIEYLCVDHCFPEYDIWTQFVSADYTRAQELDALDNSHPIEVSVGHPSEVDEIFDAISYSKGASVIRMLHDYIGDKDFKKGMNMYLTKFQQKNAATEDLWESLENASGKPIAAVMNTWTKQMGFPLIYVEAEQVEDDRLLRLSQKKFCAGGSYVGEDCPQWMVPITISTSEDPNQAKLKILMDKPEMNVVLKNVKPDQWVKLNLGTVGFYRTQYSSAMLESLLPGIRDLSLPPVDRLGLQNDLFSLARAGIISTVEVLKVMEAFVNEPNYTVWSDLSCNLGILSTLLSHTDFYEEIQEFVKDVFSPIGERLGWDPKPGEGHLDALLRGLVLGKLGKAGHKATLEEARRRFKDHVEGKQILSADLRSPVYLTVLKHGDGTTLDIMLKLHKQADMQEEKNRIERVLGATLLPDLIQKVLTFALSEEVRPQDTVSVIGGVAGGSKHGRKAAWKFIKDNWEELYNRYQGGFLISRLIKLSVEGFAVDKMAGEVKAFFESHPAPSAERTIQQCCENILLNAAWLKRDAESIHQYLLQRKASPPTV
smiles,measurement,setting,value
CC(C)[C@@H]1CC[C@@H](C)CC1OC(=O)CC(Cc1cc(F)ccc1F)NC(=O)OC(C)(C)C (stereo partly shown) [Compound C-122],meas. IC50 (DPIV),[1],no in- hibition
same,meas. IC50 (APN),[2],no in- hibition
same,meas. IC50 (DP8/9),[3],no in- hibition
same,meas. IC50 (cAAP),[4],no in- hibition
same,IC50,T lymphocytes (T cells),5.83 µM
same,IC50,NHEK cells,69.4 µM
same,IC50,SZ95 cells,65.2 µM
